# Data from US20040127567A1, “Novel methods for treating disorders in which docosahexaenoic acid (DHA) levels are affected” (Beth Israel Deaconess Medical Center, Inc., priority 1998, published 2004).
# Values joined by “and” are separate entries in the source; they are usually repeats but may differ in a detail not shown here. Equal values may be shown once. “Also recorded” adds a separate entry of the source.
# Experiments:
# Assay type in all cases: in vivo, mouse
# [1] = Plasma levels of DHA in mice fed DHA; conditions: for Plasma level of DHA: values for two different mice
# Method: Mouse pancreatic acinar and lung cell suspensions were prepared from wild type (n=3) and CFTR−/− mice (n=3) by enzymatic and mechanical dissociation. In addition, brain, kidney, heart, spleen, and blood were sonicated in 0.3M sucrose buffer. Membrane lipids were extracted from cell and organ preparations with 20 volumes of chloroform-methanol 2:1 (v/v), transmethylated with 0.5 mL of 0.1 N methanolic-NaOH/BF3 reagent, and the resulting fatty acid methyl esters analyzed by gas chromatography/mass spectrometry (GC/MS). In a different set of experiments, lipids were fractionated by aminopropyl column chromatography into triglycerides, cholesterol esters, and phosphoglycerides and the fatty acid composition of each lipid class determined by a combination of enzymatic hydrolysis, transmethylation, and GC/MS.
# Cystic fibrosis (UNC strain) and wild type mice (12-20 grams body weight) were fed with a complete liquid enteral formulation (Peptamen™, Nestle Clinical Nutrition, Inc.) supplemented with different quantities of the DHA-containing formulation Neuromins (Nature's Way Products Inc., Springville, Utah). DHA content in the Neuromins formulation was 100 mg per 500 mg of formulation. Mice were fed once a day at about 11 a.m., seven days a week with 20 ml of Peptamen™ supplemented with the various amounts of either Neuramins, free DHA (Sigma Chemical Co., MO) or DHA-ethyl ester (Nu-Check-Prep, Inc. MN) ranging from 0.5 mg/day of DHA to 40 mg/day of DHA.
# Plasma levels of DHA in CF and wild-type mice were measured as described above in the method section.
# Since the pancreas and the lung are the two primary organs affected in cystic fibrosis, AA and DHA levels in cell preparations of these organs and in wild-type and CFTR−/− mice were quantitated by GC/MS analysis. Lipids were extracted from cell suspensions, tissue homogenates, and blood plasma with 6 volumes of chloroform-methanol (2:1, v/v). The resulting emulsions were centrifuged at 600 g for 3 min and the lower phase containing the lipids was collected. This procedure was repeated twice and the lower phases from the two extractions combined. Aliquots of 30 μL of heptadecanoic acid (17:0) (1 mg/ml) were added to the extracts and used as an internal standard. Samples were evaporated to dryness under nitrogen. The resulting lipids were subsequently transmethylated using the 0.1N methanolic NaOH/boron tri fluoride reagent (Alvarez et al., (1995) Mol. Reprod. Dev. 42:334-346). The resulting fatty acid methyl esters were analyzed by Hewlett Packard GC/MS mounted with a WCOT capillary column (Supelcowax-10, 30 m×0.53 mm I.D., 1 μm film thickness) with initial and final temperatures in the column oven of 150° C. and 250° C., respectively, programmed to increase at a rate of 10° C./min. Fatty acid methyl ester peaks were identified by comparison of retention times of standard fatty acid mixtures and by mass spectrometry, and quantified using methylheptadecanoate as the internal standard. In some studies, the different lipid classes including cholesterol esters, triglycerides, free fatty acids, and glycerolipids, were also fractionated from cell and tissue extracts by aminopropyl column chromatography and the corresponding fatty acid methyl esters prepared and analyzed (Alvarez et al., (1992) J. Chromatogr. B. 577:142-145). In order to determine the fatty acids bound to the sn-2 position of lipids, the phospholipid fraction obtained by aminopropyl column chromatography was incubated at 37° C. for 15 min in 0.5 ml of PBS containing 250 units of phospholipase A2, and the resulting fatty acids methylated and analyzed by GC/MS (Alvarez et al., (1995) Mol. Reprod. Dev. 42:334-346).
# [2] = Tolerability observations in mice given DHA
# [3] = tested on: CFTR−/− mice; test: Ileal villus height in CFTR−/− mice; conditions: 40 mg/day
# Method: CF and WT mice were fed as outlined in the method section above. Ileal height, i.e., the villi height in the ileum, was measured in CF knockout animals treated with either Peptamen™ alone, Peptamen™ +40 mg per day DHA, or Wild Type (WT) animals treated with Peptamen™ alone. Animals were sacrificed at 50 days of age, ileum fixed in paraformaldehyde, and the height measured on micrographs at 100×. […] The results are outlined in FIG. 2. […] Statistically significant differences (p<0.005) were found between wild-type and CF mice as well as between CF+40 mg DHA/day and CF. There was no statistically significant difference between WT and CF+40 mg DHA/day. […]
# Morphometry: For measurement of ileal villus height or pancreatic luminal diameter, multiple images were randomly taken at 200× using a Nikon Microphot-SA microscope equipped with a Diagnostic Instruments, Inc., Spot Digitizing System. […] Quantitation was performed using NIH Imaging Software. The differences between the means in the groups tested were evaluated using the Student's t-test.
# Thus, the morphologic and morphometric studies utilized with the pancreas were also performed on the ileum. Tissue from the wild type and CFTR−/− mice was prepared for light microscopy and sections analyzed at 200×. […] Morphometric analysis is shown in FIG. 8, the villous height was quantitated using NIH image software and expressed as mean […]±S.D. (n=6). […]
# [4] = tested on: wild-type mice; test: Pancreas and ileum morphology in wild-type mice; conditions: 40 mg/day for one week
# Method: The morphology of various organs were also studied. Sample preparation were carried out as follows: 1-2 cm of ileum adjacent to the cecum was fixed in formalin, embedded in paraffin, cut in cross-section, and stained with hematoxylin/eosin. For pancreatic analyses, 2-3 mm pieces of pancreas were fixed for 1.5 h in 2% glutaraldehyde in 0.2M cacodylate buffer. Tissue samples were then washed in 0.2M cacodylate buffer and subsequently postfixed for 1 h in 1% osmium tetroxide in 0.1 M cacodylate buffer. Tissue was embedded in epon and thick sections stained with 1% toluidine blue.
# Morphometry: For measurement of ileal villus height or pancreatic luminal diameter, multiple images were randomly taken at 200× using a Nikon Microphot-SA microscope equipped with a Diagnostic Instruments, Inc., Spot Digitizing System. Images were examined in a blinded fashion by two independent observers. Quantitation was performed using NIH Imaging Software. The differences between the means in the groups tested were evaluated using the Student's t-test.
"Plasma level of DHA ([1]; CF mice, 0.5 mg/day DHA)","Plasma level of DHA ([1]; CF mice, 2 mg/day DHA)","Plasma level of DHA ([1]; CF mice, 10 mg/day DHA)","Plasma level of DHA ([1]; CF mice, 40 mg/day DHA)","DHA plasma level reached ([1]; CFTR−/− mice, 35 to 40 mg/day DHA in liquid enteral formulation)","Plasma level of DHA ([1]; WT mice, 40 mg/day DHA)","DHA plasma levels in CFTR−/− versus wild-type mice ([1]; increasing oral doses of DHA, p=0.5, n=3 (FIG. 6))",SMILES,"Diarrhea ([2]; CFTR−/− or wild-type mice, 40 mg per day of DHA)","Side effects ([2]; treated pregnant mice and their newborns, monitored for up to one month)",Effect on ileal/intestinal villus height (in words) [3],Effect on pancreas morphology (in words) [4],Effect on pancreas morphology (in words) ([4]; listed as 18:3n-3)
41 µg/mL and 40 µg/mL,99 µg/mL and 77 µg/mL,106 µg/mL and 133 µg/mL,230 µg/mL and 263 µg/mL,above 170 μg/ml,214 µg/mL and 194 µg/mL,not significantly different,"CC/C=C\C/C=C\C/C=C\C/C=C\C/C=C\C/C=C\CCC(=O)O [DHA, docosahexaenoic acid]",No overt diarrhea,no obvious long-term side effects; also recorded: no observed side effects,–,–,–
–,–,–,–,–,–,–,"CC/C=C\C/C=C\C/C=C\CCCCCCCC(=O)O [LNA, α-linolenic acid, reference compound]",–,–,increased intestinal villi height,did not produce and observable effects on pancreas morphology,did not produce any observable effects on pancreas morphology
